Measured values: ChEMBL document CHEMBL5247598 (Eur J Med Chem, 2022)

How the values were obtained:
[1] = system: MCF7; assay: Antiproliferative activity against human MCF7 cells assessed as reduction in cell viability incubated for 48 hrs by MTT assay; format: functional, cell-based; conditions: MCF7, 48 h, read-out: IC50
[2] = system: NCI/ADR-RES; assay: Antiproliferative activity against human multidrug resistant NCI-ADR-RES cells overexpressing P-gp assessed as reduction in cell viability incubated for 48 hrs by MTT assay; format: functional, cell-based
[3] = Cytotoxicity against human HEK293T cells assessed as reduction in cell viability incubated for 48 hrs by MTT assay; format: toxicity, cell-based, HEK-293T
[4] = system: NCI/ADR-RES; assay: Reversal fold, ratio of doxorubicin IC50 to doxorubicin IC50 in presence of 10 uM test compound for reversal of P-gp-mediated multidrug resistance in human NCI-ADR-RES cells incubated for 48 hrs by MTT assay; format: functional

Row | Compound | IC50 [1] | IC50 [2] | IC50 at 48 h [3] | Ratio IC50 [4]
1 | C=C1[C@H](OC(C)=O)[C@@H](OC(=O)C(C)(C)C)[C@@H](OC(C)=O)C(C)(C)/C=C/[C@H](C)[C@H](OC(=O)c2ccccc2)[C@@]2(O)C[C@@](C)(O)[C@H](OC(C)=O)[C@@H]2[C@H]1OCC(C)C | > 100 µM | > 100 µM | 52.1 µM | 47.77
2 | CC(=O)O[C@@H]1[C@@H]2[C@@H](OCC(C)C)C3(CO3)[C@H](O)[C@@H](O)[C@@H](O)C(C)(C)/C=C/[C@H](C)[C@H](OC(=O)c3ccccc3)[C@@]2(O)C[C@@]1(C)O (some centres not stated) | > 100 µM | > 100 µM | > 100 µM | 
3 | C=C1[C@H](OC(C)=O)[C@@H](OC(=O)c2cccc(C)c2)[C@@H](OC(C)=O)C(C)(C)/C=C/[C@H](C)[C@H]2O[C@]3(C)C[C@@]2(OC(=O)c2ccccc2)[C@H]([C@H]3OC(C)=O)[C@H]1OCC(C)C | > 100 µM | > 100 µM | > 100 µM | 8.9
4 | C=C1[C@H](OC(=O)c2cccc(C)c2)[C@@H](O)[C@@H](O)C(C)(C)/C=C/[C@H](C)[C@H](OC(=O)c2ccccc2)[C@@]2(O)C[C@@](C)(O)[C@H](OC(C)=O)[C@@H]2[C@H]1OCC(C)C | 21.6 µM | 33.6 µM | 12 µM | 8.85
5 | C=C1[C@H](OCC(C)C)C2=C(C[C@@](C)(OC(C)=O)[C@@H]2OC(C)=O)[C@@H](OC(=O)c2ccccc2)[C@@H](C)/C=C/C(C)(C)[C@H](OC(C)=O)[C@H](OC(C)=O)[C@H]1OCC(C)C | > 100 µM | > 100 µM | > 100 µM | 15.81
6 | C=C1[C@H](OC(C)=O)[C@@H](OC(C)=O)[C@@H](OC(C)=O)C(C)(C)/C=C/[C@H](C)[C@H](OC(=O)c2ccccc2)[C@@]2(O)C[C@@](C)(OC(=O)c3cccc(C)c3)[C@H](OC(C)=O)[C@@H]2[C@H]1OCC(C)C | > 100 µM | > 100 µM | 7.22 µM | 38.74
7 | C=C1[C@H](OC(C)=O)[C@@H](OC(C)=O)[C@@H](OC(C)=O)C(C)(C)/C=C/[C@H](C)[C@H](OC(=O)c2ccccc2)[C@@]2(O)C[C@@](C)(OC(C)=O)[C@H](OC(C)=O)[C@@H]2[C@H]1OCC(C)C | 74.3 µM | > 100 µM | 26.1 µM | 12.16
8 | C=C1[C@H](O)[C@@H](OC(=O)C(C)(C)C)[C@@H](O)C(C)(C)/C=C/[C@H](C)[C@H](OC(=O)c2ccccc2)[C@@]2(O)C[C@@](C)(O)[C@H](OC(C)=O)[C@@H]2[C@H]1OCC(C)C | 69.9 µM | > 100 µM | 31.7 µM | 0.91
9 | C=C1[C@H](OCC(C)C)[C@@H](OC(C)=O)[C@@H](OC(C)=O)C(C)(C)/C=C/[C@H](C)[C@H](OC(=O)c2ccccc2)[C@@]2(O)C[C@@](C)(OC(C)=O)[C@H](OC(C)=O)[C@@H]2[C@H]1OCC(C)C | > 100 µM | > 100 µM | > 100 µM | 10.64
10 | C=C1[C@H](OC(C)=O)[C@@H](OC(=O)C(C)(C)C)[C@@H](OC(C)=O)C(C)(C)/C=C/[C@H](C)[C@H](OC(=O)c2ccccc2)[C@@]2(O)C[C@@](C)(OC(C)=O)[C@H](OC(C)=O)[C@@H]2[C@H]1OCC(C)C | > 100 µM | > 100 µM | 18.9 µM | 33.78
11 | C=C1[C@H](OC(C)=O)[C@@H](OC(C)=O)[C@@H](O)C(C)(C)/C=C/[C@H](C)[C@H](OC(=O)c2ccccc2)[C@@]2(O)C[C@@](C)(O)[C@H](OC(C)=O)[C@@H]2[C@H]1OCC(C)C | > 100 µM | > 100 µM | > 100 µM | 
